In ChEMBL document CHEMBL1137869 (Bioorg Med Chem Lett, 2004):

Experiments:
[1] = target: T1, Platelet-derived growth factor receptor beta (Homo sapiens, UniProt P09619); assay: In vitro inhibition of Platelet derived growth factor receptor beta autophosphorylation in MG-63 cells without plasma; format: cell-based
[2] = target: T1, Platelet-derived growth factor receptor beta; assay: In vitro inhibition of Platelet derived growth factor receptor beta autophosphorylation in MG-63 cells with 45% human plasma; format: cell-based
[3] = Inhibition of PDGFR-beta/Flt-3 chimeric receptor autophosphorylation in CHO cells; format: cell-based
[4] = target: T1, Platelet-derived growth factor receptor beta; assay: Inhibition of Platelet derived growth factor receptor beta autophosphorylation in CHO cells; format: cell-based
[5] = Inhibition of PDGFR-beta/c-Kit chimeric receptor autophosphorylation in CHO cells; format: cell-based
[6] = Bioavailability in rat (dose 30 mg/kg i.v./p.o.); format: ADME, organism-based; settings: in vivo, po
[7] = Maximum concentration was determined in dog by iv/po dose at 8.09 mg/kg; format: ADME, organism-based, Canis lupus familiaris; set-up: dose 8.09 mg/kg; settings: in vivo
[8] = Maximum concentration was determined in monkey by iv/po dose at 10 mg/kg; format: ADME, organism-based; set-up: dose 10 mg/kg; settings: cercopithecidae, in vivo
[9] = Plasma half life was determined in rat by iv/po dose at 30 mg/kg; format: ADME, organism-based; set-up: dose 30 mg/kg
[10] = Area under curve was determined in rat by peroral dose at 30 mg/kg; format: ADME, organism-based; set-up: dose 30 mg/kg, route oral; settings: in vivo, po
[11] = Maximum concentration was determined in rat by iv/po dose at 30 mg/kg; format: ADME, organism-based; set-up: dose 30 mg/kg; settings: in vivo
[12] = Percent bioavailability was determined in dog by iv/po dose at 8.09 mg/kg; format: ADME, organism-based, Canis lupus familiaris; settings: in vivo
[13] = Plasma half life was determined in monkey by iv/po dose at 10 mg/kg; format: ADME, organism-based; set-up: dose 10 mg/kg; settings: cercopithecidae
[14] = Plasma half life was determined in dog by iv/po dose at 8.09 mg/kg; format: ADME, organism-based, Canis lupus familiaris; set-up: dose 8.09 mg/kg
[15] = Maximum concentration was determined in rat by iv/po dose at 10 mg/kg; format: ADME, organism-based; set-up: dose 10 mg/kg; settings: in vivo
[16] = Plasma half life was determined in rat by iv/po dose at 10 mg/kg; format: ADME, organism-based; set-up: dose 10 mg/kg
[17] = Maximum concentration was determined in dog by iv/po dose at 5 mg/kg; format: ADME, organism-based, Canis lupus familiaris; set-up: dose 5 mg/kg; settings: in vivo
[18] = Percent bioavailability was determined in monkey by iv/po dose at 10 mg/kg; format: ADME, organism-based; settings: cercopithecidae, in vivo
[19] = Area under curve was determined in rat by peroral dose at 10 mg/kg; format: ADME, organism-based; set-up: dose 10 mg/kg, route oral; settings: in vivo, po
[20] = Percent bioavailability was determined in rat by iv/po dose at 10 mg/kg; format: ADME, organism-based; settings: in vivo
[21] = Percent bioavailability was determined in dog by iv/po dose at 5 mg/kg; format: ADME, organism-based, Canis lupus familiaris; settings: in vivo
[22] = Plasma half life was determined in dog by iv/po dose at 5 mg/kg; format: ADME, organism-based, Canis lupus familiaris; set-up: dose 5 mg/kg
[23] = Area under curve was determined in dog by peroral dose at 5 mg/kg; format: ADME, organism-based, Canis lupus familiaris; set-up: dose 5 mg/kg, route oral; settings: in vivo, po
[24] = Plasma half life was determined in dog by iv/po dose at 8.69 mg/kg; format: ADME, organism-based, Canis lupus familiaris; set-up: dose 8.69 mg/kg
[25] = Percent bioavailability was determined in dog by iv/po dose at 8.69 mg/kg; format: ADME, organism-based, Canis lupus familiaris; settings: in vivo
[26] = Maximum concentration was determined in dog by iv/po dose at 8.69 mg/kg; format: ADME, organism-based, Canis lupus familiaris; set-up: dose 8.69 mg/kg; settings: in vivo

T1 sequence (P09619 whole entry): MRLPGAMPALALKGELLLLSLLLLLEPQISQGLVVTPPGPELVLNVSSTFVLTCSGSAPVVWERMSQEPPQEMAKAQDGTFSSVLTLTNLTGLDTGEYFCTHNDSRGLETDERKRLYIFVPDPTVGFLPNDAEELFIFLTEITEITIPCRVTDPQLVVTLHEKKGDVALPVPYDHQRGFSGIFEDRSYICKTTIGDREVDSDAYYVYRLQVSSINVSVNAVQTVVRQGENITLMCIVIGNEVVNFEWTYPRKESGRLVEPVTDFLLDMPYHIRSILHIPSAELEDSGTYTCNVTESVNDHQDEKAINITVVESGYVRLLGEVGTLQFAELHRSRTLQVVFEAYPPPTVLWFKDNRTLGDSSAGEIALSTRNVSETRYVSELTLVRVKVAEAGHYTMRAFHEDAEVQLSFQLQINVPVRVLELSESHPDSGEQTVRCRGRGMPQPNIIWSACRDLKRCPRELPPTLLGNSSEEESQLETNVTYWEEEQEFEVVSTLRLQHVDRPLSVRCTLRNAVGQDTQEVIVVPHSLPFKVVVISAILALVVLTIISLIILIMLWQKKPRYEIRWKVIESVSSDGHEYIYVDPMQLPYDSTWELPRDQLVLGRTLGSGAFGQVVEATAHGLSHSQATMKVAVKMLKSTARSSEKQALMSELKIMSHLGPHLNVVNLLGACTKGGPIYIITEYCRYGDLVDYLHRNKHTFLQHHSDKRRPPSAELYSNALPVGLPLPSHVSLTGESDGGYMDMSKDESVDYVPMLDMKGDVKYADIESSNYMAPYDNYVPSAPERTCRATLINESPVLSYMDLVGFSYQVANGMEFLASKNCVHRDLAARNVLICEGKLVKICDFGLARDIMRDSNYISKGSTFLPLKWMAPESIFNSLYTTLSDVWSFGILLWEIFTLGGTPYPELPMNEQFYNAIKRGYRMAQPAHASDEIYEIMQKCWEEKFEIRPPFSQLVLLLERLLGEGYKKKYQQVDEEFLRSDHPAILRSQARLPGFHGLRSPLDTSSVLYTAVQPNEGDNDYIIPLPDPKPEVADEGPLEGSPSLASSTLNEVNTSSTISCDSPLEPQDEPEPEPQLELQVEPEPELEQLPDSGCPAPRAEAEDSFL

Row | Structure (SMILES) | IC50 [1] | IC50 [2] | IC50 [3] | IC50 [4] | IC50 [5] | other results
1 | COc1cc2c(N3CCN(/C(S)=N\c4ccsc4)CC3)ncnc2cc1OCCN1CCCCC1 | 0.1 µM | 0.74 µM |  |  |  | 
2 | COc1cc2c(N3CCN(/C(S)=N\Cc4ccc(C(F)(F)F)nc4Cl)CC3)ncnc2cc1OCCN1CCCCC1 | 1.13 µM | 1.4 µM | 6.77 µM | 0.1 µM | 0.79 µM | 
3 | COc1cc2c(N3CCN(C(=S)Nc4ccc(Cl)nc4)CC3)ncnc2cc1OCCN1CCCCC1 | 0.89 µM | 0.51 µM | 19.8 µM | 0.36 µM | 0.5 µM | 
4 | COc1cc2c(N3CCN(/C(S)=N\c4ccc(C(F)(F)F)nc4)CC3)ncnc2cc1OCCN1CCCCC1 | 4.1 µM | 1.06 µM |  |  |  | 
5 | COc1cc2c(N3CCN(/C(S)=N\Cc4ccc(C)o4)CC3)ncnc2cc1OCCCN1CCCCC1 | 0.08 µM | 0.09 µM | > 30 µM | 0.08 µM | 0.05 µM | 
6 | COc1cc2c(N3CCN(C(=S)Nc4ccncc4)CC3)ncnc2cc1OCCCN1CCCCC1 | 0.22 µM | 0.06 µM | 24.2 µM | 0.58 µM | 1.85 µM | 
7 | COc1cc2c(N3CCN(C(=S)NCc4ccc5c(c4)OCO5)CC3)ncnc2cc1OCCN1CCCCC1 | 0.02 µM | 0.12 µM | 2.91 µM | 0.04 µM | 0.06 µM | bioavailability [6]: 39.1%; Cmax [7]: 0.456 µg/mL; Cmax [8]: 0.0925 µg/mL; half-life [9]: 26.7 h; AUC [10]: 69 µg/h/mL; Cmax [11]: 0.146 µg/mL; bioavailability [12]: 102%; half-life [13]: 9.25 h; half-life [14]: 15.7 h
8 | COc1cc2c(N3CCN(C(=NC#N)Nc4ccncc4)CC3)ncnc2cc1OCCCN1CCCCC1 | 31.7 µM | 17.1 µM |  |  |  | 
9 | COc1cc2c(N3CCN(/C(S)=N\Cc4ccc(C)nc4)CC3)ncnc2cc1OCCCN1CCCCC1 | 0.14 µM | 0.09 µM | > 30 µM | 0.14 µM | 0.24 µM | 
10 | COc1cc2c(N3CCN(C(=S)NCc4ccc(C(F)(F)F)nc4)CC3)ncnc2cc1OCCN1CCCCC1 | 1.03 µM | 0.09 µM | > 30 µM | 0.15 µM | 0.24 µM | 
11 | COc1cc2c(N3CCN(/C(S)=N\c4ccc(Cl)nn4)CC3)ncnc2cc1OCCN1CCCCC1 | 0.42 µM | 1.33 µM |  |  |  | 
12 | COc1cc2c(N3CCN(C(=S)Nc4cccnc4)CC3)ncnc2cc1OCCN1CCCCC1 | 3.76 µM | 4.98 µM |  |  |  | 
13 | COc1cc2c(N3CCN(C(=S)NCc4ccc(C)nc4Cl)CC3)ncnc2cc1OCCN1CCCCC1 | 1.15 µM | 0.35 µM |  |  |  | 
14 | COc1cc2c(N3CCN(/C(S)=N\Cc4ccnc(Cl)c4)CC3)ncnc2cc1OCCN1CCCCC1 | 1.79 µM | 0.77 µM |  |  |  | 
15 | COc1cc2c(N3CCN(C(=S)NCc4cnc(C)cn4)CC3)ncnc2cc1OCCCN1CCCCC1 | 0.14 µM | 0.05 µM | > 30 µM | 1.35 µM | 1.52 µM | 
16 | COc1cc2c(N3CCN(/C(=N\Cc4ccc(C(F)(F)F)nc4)NC#N)CC3)ncnc2cc1OCCCN1CCCCC1 | 3.42 µM | 2.18 µM |  |  |  | 
17 | COc1cc2c(N3CCN(/C(=N\c4ccc(-c5ccccn5)cc4)NC#N)CC3)ncnc2cc1OCCCN1CCCCC1 | 0.42 µM | 0.37 µM |  |  |  | 
18 | COc1cc2c(N3CCN(/C(S)=N\Cc4ccco4)CC3)ncnc2cc1OCCN1CCCC1 | 0.16 µM | 0.31 µM | > 30 µM | 0.29 µM | 1.8 µM | 

Row | Structure (SMILES) | IC50 [1] | IC50 [2] | IC50 [3] | IC50 [4] | IC50 [5] | other results
19 | COc1cc2c(N3CCN(/C(S)=N\c4ccc(-c5cccc[n+]5[O-])cc4)CC3)ncnc2cc1OCCN1CCCCC1 | 0.8 µM | 0.43 µM |  |  |  | 
20 | COc1cc2c(N3CCN(/C(S)=N\Cc4cccnc4)CC3)ncnc2cc1OCCN1CCCCC1 | 2.11 µM | 0.71 µM |  |  |  | 
21 | COc1cc2c(N3CCN(C(=S)NCc4ccc(Cl)nc4)CC3)ncnc2cc1OCCN1CCCCC1 | 1.01 µM | 0.08 µM | > 30 µM | 0.05 µM | 0.07 µM | 
22 | COc1cc2c(N3CCN(/C(=N\Cc4cc(C)on4)NC#N)CC3)ncnc2cc1OCCCN1CCCCC1 | 10.5 µM | 2.37 µM |  |  |  | 
23 | COc1cc2c(N3CCN(C(=S)Nc4ccc(-c5ccccc5)nc4)CC3)ncnc2cc1OCCCN1CCCCC1 | 0.36 µM | 0.27 µM | 5.55 µM | 0.1 µM | 0.19 µM | 
24 | COc1cc2c(N3CCN(/C(S)=N\c4nccs4)CC3)ncnc2cc1OCCN1CCCCC1 | 2 µM | 5.04 µM |  |  |  | 
25 | COc1cc2c(N3CCN(/C(=N\Cc4ccc5c(c4)OCO5)NC#N)CC3)ncnc2cc1OCCCN1CCCCC1 | 0.32 µM | 0.59 µM |  |  |  | 
26 | COc1cc2c(N3CCN(/C(S)=N\c4ccc(-c5ccccn5)cc4)CC3)ncnc2cc1OCCN1CCCCC1 | 0.18 µM | 0.15 µM | 3.19 µM | 0.07 µM | 0.1 µM | Cmax [15]: 0.0341 µg/mL; half-life [16]: 17.4 h; Cmax [8]: 0.143 µg/mL; Cmax [17]: 0.0389 µg/mL; bioavailability [18]: 68%; AUC [19]: 26.9 µg/h/mL; bioavailability [20]: 8.82%; bioavailability [21]: 30.2%; half-life [13]: 8.46 h; half-life [22]: 7.58 h; AUC [23]: 0.333 µg·h/mL
27 | COc1cc2c(N3CCN(/C(S)=N\c4ccnc(C#N)c4)CC3)ncnc2cc1OCCN1CCCCC1 | 1.54 µM | 1.79 µM |  |  |  | 
28 | COc1cc2c(N3CCN(/C(S)=N\c4ccc(Br)cc4)CC3)ncnc2cc1OCCN1CCOCC1 | 0.18 µM | 0.54 µM |  |  |  | 
29 | COc1cc2c(N3CCN(C(=S)NCc4ccc(N)nc4)CC3)ncnc2cc1OCCN1CCCCC1 | 5.81 µM | 2.93 µM |  |  |  | 
30 | COc1cc2c(N3CCN(C(=S)NCc4cnc(C)cn4)CC3)ncnc2cc1OCCN1CCCCC1 | 0.05 µM | 0.06 µM | > 30 µM | 0.25 µM | 0.89 µM | bioavailability [6]: 13.7%; half-life [24]: 10.8 h; Cmax [8]: 0.235 µg/mL; half-life [9]: 14.1 h; AUC [10]: 32.2 µg/h/mL; Cmax [11]: 0.239 µg/mL; bioavailability [25]: 38.8%; Cmax [26]: 0.297 µg/mL; half-life [13]: 20.9 h
31 | COc1cc2c(N3CCN(C(=S)NCc4ccncc4)CC3)ncnc2cc1OCCN1CCCCC1 | 12.1 µM | 3.59 µM |  |  |  | 
32 | COc1cc2c(N3CCN(C(=NC#N)Nc4ccc(C(C)(C)C)cc4)CC3)ncnc2cc1OCCCN1CCCCC1 | 0.8 µM | 1.55 µM |  |  |  | 
33 | COc1cc2c(N3CCN(/C(S)=N\Cc4ccc(C(F)(F)F)nc4)CC3)c(C#N)cnc2cc1OCCCN1CCCCC1 | 0.003 µM | 0.01 µM | 0.04 µM | 0.01 µM | 0.02 µM | 
34 | COc1cc2c(N3CCN(C(=S)Nc4ccc(Br)cc4)CC3)ncnc2cc1OCCN1CCCC1 | 0.35 µM | 0.47 µM |  |  |  | 
35 | COc1cc2c(N3CCN(/C(S)=N\c4ccncc4)CC3)ncnc2cc1OCCN1CCCCC1 | 0.24 µM | 0.4 µM | > 30 µM | 0.98 µM | 2.97 µM | 
